# “And” between values parts separate entries of the source, which are not always exact repeats. Equal values may be shown once. Read-outs that look alike come from different tables or passages of the source.
# Key:
# [1] = system: RPMI-8226; assay: NCI cytotoxicity screen; type: cell-based, human
# [2] = system: SR; assay: NCI cytotoxicity screen; type: cell-based, human
# [3] = system: A549/ATCC; assay: NCI cytotoxicity screen; type: cell-based, human
# [4] = system: EKVX; assay: NCI cytotoxicity screen; type: cell-based, human
# [5] = system: HOP-62; assay: NCI cytotoxicity screen; type: cell-based, human
# [6] = system: NCI-H23; assay: NCI cytotoxicity screen; type: cell-based, human
# [7] = system: NCI-H322M; assay: NCI cytotoxicity screen; type: cell-based, human
# [8] = system: NCI-H460; assay: NCI cytotoxicity screen; type: cell-based, human
# [9] = system: COLO 205; assay: NCI cytotoxicity screen; type: cell-based, human
# [10] = system: HCC-2998; assay: NCI cytotoxicity screen; type: cell-based, human
# [11] = system: HCT-15; assay: NCI cytotoxicity screen; type: cell-based, human
# [12] = system: HT29; assay: NCI cytotoxicity screen; type: cell-based, human; settings: HT-29
# [13] = system: SF-295; assay: NCI cytotoxicity screen; type: cell-based, human
# [14] = system: SF-539; assay: NCI cytotoxicity screen; type: cell-based, human
# [15] = system: SNB-75; assay: NCI cytotoxicity screen; type: cell-based, human
# [16] = system: U251; assay: NCI cytotoxicity screen; type: cell-based, human; settings: U-251
# [17] = system: SK-MEL-5; assay: NCI cytotoxicity screen; type: cell-based, human
# [18] = system: UACC-257; assay: NCI cytotoxicity screen; type: cell-based, human
# [19] = system: UACC-62; assay: NCI cytotoxicity screen; type: cell-based, human
# [20] = system: OVCAR-3; assay: NCI cytotoxicity screen; type: cell-based, human
# [21] = system: OVCAR-4; assay: NCI cytotoxicity screen; type: cell-based, human
# [22] = system: OVCAR-5; assay: NCI cytotoxicity screen; type: cell-based, human
# [23] = system: OVCAR-8; assay: NCI cytotoxicity screen; type: cell-based, human
# [24] = system: NCI/ADR-RES; assay: NCI cytotoxicity screen; type: cell-based, human
# [25] = system: 786-0; assay: NCI cytotoxicity screen; type: cell-based, human
# [26] = system: ACHN; assay: NCI cytotoxicity screen; type: cell-based, human
# [27] = system: CAKI-1; assay: NCI cytotoxicity screen; type: cell-based, human
# [28] = system: RXF 393; assay: NCI cytotoxicity screen; type: cell-based, human
# [29] = system: SN12C; assay: NCI cytotoxicity screen; type: cell-based, human
# [30] = system: UO-31; assay: NCI cytotoxicity screen; type: cell-based, human
# [31] = system: PC-3; assay: NCI cytotoxicity screen; type: cell-based, human
# [32] = system: MDA-MB-231/ATCC; assay: NCI cytotoxicity screen; type: cell-based, human
# [33] = system: BT-549; assay: NCI cytotoxicity screen; type: cell-based, human
# [34] = system: T-47D; assay: NCI cytotoxicity screen; type: cell-based, human
# [35] = system: Leukemia subpanel tumor cell lines; assay: NCI cytotoxicity screen, subpanel; type: cell-based, human
# [36] = system: NSC lung cancer subpanel tumor cell lines; assay: NCI cytotoxicity screen, subpanel; type: cell-based, human
# [37] = system: CNS cancer subpanel tumor cell lines; assay: NCI cytotoxicity screen, subpanel; type: cell-based, human
# [38] = system: Melanoma subpanel tumor cell lines; assay: NCI cytotoxicity screen, subpanel; type: cell-based, human
# [39] = system: Ovarian cancer subpanel tumor cell lines; assay: NCI cytotoxicity screen, subpanel; type: cell-based, human
# [40] = system: Prostate cancer subpanel tumor cell lines; assay: NCI cytotoxicity screen, subpanel; type: cell-based, human
# [41] = system: Breast cancer subpanel tumor cell lines; assay: NCI cytotoxicity screen, subpanel; type: cell-based, human
# [42] = system: 59 cancer cell lines; assay: NCI cytotoxicity screen, full panel; type: cell-based, human
# [43] = system: K-562; assay: cells; settings: Homo sapiens, K562
# [44] = subpanel value, NSC lung cancer
# [45] = subpanel value, Prostate cancer
smiles,measurement,setting,value
"CCN(CC)c1ccc(C=NNC(=O)CSc2nc3ccccc3c(=O)n2Cc2ccc(S(N)(=O)=O)cc2)c(O)c1 [Compound 5, 4-((2-((2-(2-(4-(Diethylamino)-2-hydroxybenzylidene)hydrazineyl)-2-oxoethyl)thio)-4-oxoquinazolin-3(4H)-yl)methyl)benzenesulfonamide]",GI %,[1]; 10.0 μM one dose,83%
same,GI50,[1]; Homo sapiens,521 nM
same,GI %,[2]; 10.0 μM one dose,90%
same,GI50,[2]; Homo sapiens,212 nM
same,GI %,"[3]; 10.0 μM one dose, A549/ATCC",71%
same,GI50,"[3]; Homo sapiens, A549",1570 nM
same,GI %,[4]; 10.0 μM one dose,65%
same,GI50,[4]; Homo sapiens,650 nM
same,GI %,[5]; 10.0 μM one dose,79%
same,GI50,[5]; Homo sapiens,961 nM
same,GI %,[6]; 10.0 μM one dose,61%
same,GI50,[6]; Homo sapiens,1960 nM
same,GI %,[7]; 10.0 μM one dose,67%
same,GI50,[7]; Homo sapiens,575 nM
same,GI %,[8]; 10.0 μM one dose,94%
same,GI50,[8]; Homo sapiens,424 nM
same,GI %,"[9]; 10.0 μM one dose, COLO-205",102%
same,GI50,"[9]; Homo sapiens, COLO 205",1510 nM
same,GI %,"[10]; 10.0 μM one dose, HCC-2998",80%
same,GI50,"[10]; Homo sapiens, HCC 2998",882 nM
same,GI %,[11]; 10.0 μM one dose,53%
same,GI50,[11]; Homo sapiens,3620 nM
same,GI %,[12]; 10.0 μM one dose,68%
same,GI50,[12]; Homo sapiens,3010 nM
same,GI %,[13]; 10.0 μM one dose,80%
same,GI50,[13]; Homo sapiens,1470 nM
same,GI %,[14]; 10.0 μM one dose,72%
same,GI50,[14]; Homo sapiens,1260 nM
same,GI %,[15]; 10.0 μM one dose,62%
same,GI50,[15]; Homo sapiens,2860 nM
same,GI %,[16]; 10.0 μM one dose,76%
same,GI50,[16]; Homo sapiens,510 nM
same,GI %,[17]; 10.0 μM one dose,95%
same,GI50,[17]; Homo sapiens,1570 nM
same,GI %,[18]; 10.0 μM one dose,87%
same,GI50,[18]; Homo sapiens,3030 nM
same,GI %,[19]; 10.0 μM one dose,94%
same,GI50,[19]; Homo sapiens,886 nM
same,GI %,"[20]; 10.0 μM one dose, IGROV-3",85%
same,GI50,"[20]; Homo sapiens, OVCAR-3",287 nM
same,GI %,"[21]; 10.0 μM one dose, IGROV-4",88%
same,GI50,"[21]; Homo sapiens, OVCAR-4",311 nM
same,GI %,"[22]; 10.0 μM one dose, IGROV-5",45%
same,GI50,"[22]; Homo sapiens, OVCAR-5",2090 nM
same,GI %,[23]; 10.0 μM one dose,80%
same,GI50,[23]; Homo sapiens,932 nM
same,GI %,[24]; 10.0 μM one dose,13%
same,GI50,"[24]; Homo sapiens, five-dose",> 100000 nM
same,GI %,[25]; 10.0 μM one dose,68%
same,GI50,[25]; Homo sapiens,1840 nM
same,GI %,[26]; 10.0 μM one dose,67%
same,GI50,[26]; Homo sapiens,1580 nM
same,GI %,[27]; 10.0 μM one dose,69%
same,GI50,[27]; Homo sapiens,1020 nM
same,GI %,[28]; 10.0 μM one dose,58%
same,GI50,[28]; Homo sapiens,2500 nM
same,GI %,"[29]; 10.0 μM one dose, SN-12C",68%
same,GI50,"[29]; Homo sapiens, SN12C",1930 nM
same,GI %,[30]; 10.0 μM one dose,54%
same,GI50,[30]; Homo sapiens,2890 nM
same,GI %,[31]; 10.0 μM one dose,51%
same,GI50,[31]; Homo sapiens,829 nM
same,GI %,"[32]; 10.0 μM one dose, MDA-MB-231/ATCC",75%
same,GI50,"[32]; Homo sapiens, MDA-MB-231",643 nM
same,GI %,[33]; 10.0 μM one dose,67%
same,GI50,[33]; Homo sapiens,2680 nM
same,GI %,"[34]; 10.0 μM one dose, T-47D",94%
same,GI50,"[34]; Homo sapiens, T47D",925 nM
same,CC50,"[35]; Homo sapiens, read-out: LC50",> 100000 nM
same,GI50,"[35]; Homo sapiens, subpanel value, Leukemia",400 nM
same,GI50,"[35]; subpanel value, Leukemia",384 nM
same,TGI,"[35]; subpanel value, Leukemia",68371 nM
same,CC50,"[36]; Homo sapiens, read-out: LC50",> 100000 nM
same,GI50,"[36]; Homo sapiens, subpanel value, NSC lung cancer",1100 nM
same,GI50,[36]; [44],1060 nM
same,TGI,[36]; [44],c (Compounds showed values > 100 μM)
same,CC50,"[37]; Homo sapiens, read-out: LC50",> 100000 nM
same,GI50,"[37]; Homo sapiens, subpanel value, CNS cancer",1500 nM
same,GI50,"[37]; subpanel value, CNS cancer",1490 nM
same,TGI,"[37]; subpanel value, CNS cancer",c (Compounds showed values > 100 μM)
same,CC50,"[38]; Homo sapiens, read-out: LC50",> 100000 nM
same,GI50,"[38]; Homo sapiens, subpanel value, Melanoma",1500 nM
same,GI50,"[38]; subpanel value, Melanoma",1500 nM
same,TGI,"[38]; subpanel value, Melanoma",59090 nM
same,CC50,"[39]; Homo sapiens, read-out: LC50",> 100000 nM
same,GI50,"[39]; Homo sapiens, subpanel value, Ovarian cancer",15100 nM
same,GI50,"[39]; subpanel value, Ovarian cancer",15100 nM
same,TGI,"[39]; subpanel value, Ovarian cancer",c (Compounds showed values > 100 μM)
same,CC50,"[40]; Homo sapiens, read-out: LC50",> 100000 nM
same,GI50,"[40]; Homo sapiens, subpanel value, Prostate cancer",900 nM
same,GI50,[40]; [45],886 nM
same,TGI,[40]; [45],c (Compounds showed values > 100 μM)
same,CC50,"[41]; Homo sapiens, read-out: LC50",> 100000 nM
same,GI50,"[41]; Homo sapiens, subpanel value, Breast cancer",1200 nM
same,GI50,"[41]; subpanel value, Breast cancer",1230 nM
same,TGI,"[41]; subpanel value, Breast cancer",84170 nM
same,MG% (mean growth percent),"[42]; 10.0 μM one dose, 59 cell lines",23.5% and 23.46%
same,GI50,"[42]; Homo sapiens, read-out: GI50 MG_MID, full panel mean-graph midpoint",1000 nM
same,CC50,"[42]; Homo sapiens, read-out: LC50 MG_MID, full panel mean-graph midpoint",> 100000 nM
same,TGI MG_MID,[42]; full panel mean-graph midpoint,89200 nM and 89240 nM
same,GI50,"[42]; read-out: GI50 MG_MID, full panel mean-graph midpoint",1100 nM
same,CC50,"[42]; read-out: LC50 MG_MID, full panel mean-graph midpoint",> 100000 nM
same,GI50,[43],592 nM

# Reference: article PMC11702208 (RSC Advances, 2025)
